Structures are written as SMILES.

T1 sequence (P29597 whole entry P760L): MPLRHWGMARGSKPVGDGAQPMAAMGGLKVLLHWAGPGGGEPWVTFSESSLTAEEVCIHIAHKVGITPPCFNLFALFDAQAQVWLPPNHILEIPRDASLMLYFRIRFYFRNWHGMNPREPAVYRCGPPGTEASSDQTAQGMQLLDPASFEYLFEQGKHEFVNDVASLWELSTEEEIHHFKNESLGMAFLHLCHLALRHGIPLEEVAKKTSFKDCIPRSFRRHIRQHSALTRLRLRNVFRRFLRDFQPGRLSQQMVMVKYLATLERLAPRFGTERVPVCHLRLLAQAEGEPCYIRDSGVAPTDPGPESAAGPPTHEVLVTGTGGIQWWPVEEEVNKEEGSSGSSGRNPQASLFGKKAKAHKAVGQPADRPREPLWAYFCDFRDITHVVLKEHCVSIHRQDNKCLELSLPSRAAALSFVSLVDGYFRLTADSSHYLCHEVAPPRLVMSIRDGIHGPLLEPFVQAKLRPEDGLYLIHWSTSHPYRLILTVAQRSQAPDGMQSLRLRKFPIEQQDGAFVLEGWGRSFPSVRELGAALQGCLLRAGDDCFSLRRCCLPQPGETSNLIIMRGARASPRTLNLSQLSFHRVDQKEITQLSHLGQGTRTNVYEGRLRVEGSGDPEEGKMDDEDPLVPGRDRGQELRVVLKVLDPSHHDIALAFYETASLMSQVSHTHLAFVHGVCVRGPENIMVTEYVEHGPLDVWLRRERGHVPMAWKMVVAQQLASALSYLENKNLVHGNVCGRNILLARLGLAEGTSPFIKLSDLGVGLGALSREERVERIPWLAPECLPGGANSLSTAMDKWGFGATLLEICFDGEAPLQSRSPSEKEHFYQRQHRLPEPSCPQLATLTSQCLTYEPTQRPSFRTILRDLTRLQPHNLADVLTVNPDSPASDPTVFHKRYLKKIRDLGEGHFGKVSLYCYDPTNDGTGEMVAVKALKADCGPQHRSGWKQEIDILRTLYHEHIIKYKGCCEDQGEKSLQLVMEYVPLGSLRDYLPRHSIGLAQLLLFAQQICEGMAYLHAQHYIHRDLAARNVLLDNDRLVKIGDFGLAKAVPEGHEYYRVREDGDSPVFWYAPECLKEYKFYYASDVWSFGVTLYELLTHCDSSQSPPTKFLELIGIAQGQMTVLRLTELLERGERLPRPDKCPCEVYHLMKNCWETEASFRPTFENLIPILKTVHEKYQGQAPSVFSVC

This experiment concerns the target T1, Ba/F3-FL-TYK2-P760L cells (Homo sapiens, UniProt P29597, P760L, cells depend on it).
T1 construct: BaF3-FL-T2P760L (nM)
Briefly: Anti-proliferative assay, Ba/F3-FL-TYK2-P760L cells (Cell-Titer Glo). It counts as cell-based. The note with it: 72 h, read-out: BaF3-FL-T2P760L IC50. Here is the method:
Anti-Proliferative Assay Dimerization domain of Tel protein fused with JAK kinase domain was permanently transduced into Ba/F3 cells, whose proliferation is dependent on JAK activity in the absence of IL-3 induction. These engineered Ba/F3 cells (Ba/F3-FL-TYK2-[…], Ba/F3-TEL-TYK2 and Ba/F3-TEL-JAK2) were used to monitor JAK inhibitory activities of the compounds in the cellular. […] Cells were seeded at 2000/well of white flat bottom 96-well plates. The well containing medium only was used as background control. After 24 h growth, cells were treated with compounds. The test compounds were dissolved in DMSO to a stock concentration of 20 mM. 3-fold serially diluted compounds for 9 concentrations with top concentration of 20 μM was added into the each well. […] The cells continued to grow at 37° C. in 5% CO2 for 72 h after compound treatment. The viability was measured by cellular ATP determination using the Cell-Titer Glo luciferase reagent (Promega). The Luminescence value was recorded by a multi-label reader Envision (PerkinElmer).
For `[2H]C([2H])([2H])NC(=O)c1nnc2cc1Nc1cc(cc(-c3ccn(C4CC4)n3)c1OC)COCc1cc(F)cc(n1)N2` [Example 94, 11-(1-Cyclopropyl-1H-pyrazol-3-yl)-19-fluoro-10-methoxy-N-(methyl-d3)-15-oxa-2,4,5,8,21-pentaazatetracyclo[15.3.1.1^{3,7}.1^{9,13}]tricosa-1(21),3,5,7(23),9(22),10,12,17,19-nonaene-6-carboxamide], the GI50 was determined as 293 nM.
The same measure for `[2H]C([2H])([2H])NC(=O)c1cnc(NC(=O)[C@H]2C[C@H]2F)cc1Nc1cn(C)c2ccn(CC)c(=O)c12` [Example 101, 4-[(5-Ethyl-1-methyl-4-oxo-pyrrolo[3,2-c]pyridin-3-yl)amino]-6-[[(1R,2R)-2-fluorocyclopropanecarbonyl]amino]-N-(methyl-d3)pyridine-3-carboxamide]: 809 nM; for `[2H]C([2H])([2H])NC(=O)c1cnc(NC(=O)[C@@H]2C[C@@H]2F)cc1Nc1cn(C)c2ccn(CC)c(=O)c12` [Example 102, 4-[(5-Ethyl-1-methyl-4-oxo-pyrrolo[3,2-c]pyridin-3-yl)amino]-6-[[(1S,2S)-2-fluorocyclopropanecarbonyl]amino]-N-(methyl-d3)pyridine-3-carboxamide]: 807 nM.
Take `[2H]C([2H])([2H])NC(=O)c1cnc(NC(=O)[C@@H]2C[C@H]2F)cc1Nc1cn(C)c2ccn(CC)c(=O)c12` [Example 103, 4-[(5-Ethyl-1-methyl-4-oxo-pyrrolo[3,2-c]pyridin-3-yl)amino]-6-[[(1S,2R)-2-fluorocyclopropanecarbonyl]amino]-N-(methyl-d3)pyridine-3-carboxamide]: the GI50 turned out to be 761 nM.
The same measure for `[2H]C([2H])([2H])NC(=O)c1cnc(NC(=O)C2(C(F)(F)F)CC2)cc1Nc1cn(C)c2ccn(CC)c(=O)c12` [Example 104, 4-[(5-Ethyl-1-methyl-4-oxo-pyrrolo[3,2-c]pyridin-3-yl)amino]-N-(methyl-d3)-6-[[1-(trifluoromethyl)cyclopropanecarbonyl]amino]pyridine-3-carboxamide]: 2420 nM; for `[2H]C([2H])([2H])NC(=O)c1cnc(NC(=O)C2CC2)cc1Nc1cn(C)c2ccn(CC3CC3)c(=O)c12` [Example 106, 6-(Cyclopropanecarboxamido)-4-((5-(cyclopropylmethyl)-1-methyl-4-oxo-4,5-dihydro-1H-pyrrolo[3,2-c]pyridin-3-yl)amino)-N-(methyl-d3)nicotinamide]: 206 nM.
Then `[2H]C([2H])([2H])NC(=O)c1cnc(NC(=O)C2CC2)cc1Nc1nn(C)c2ccn(CC3CC3(F)F)c(=O)c12` (stereo not shown) [Example 107, 6-(Cyclopropanecarboxamido)-4-((5-((2,2-difluorocyclopropyl)methyl)-1-methyl-4-oxo-4,5-dihydro-1H-pyrazolo[4,3-c]pyridin-3-yl)amino)-N-(methyl-d3)nicotinamide], with 2100 nM; and `[2H]C([2H])([2H])NC(=O)c1cnc(NC(=O)C2CC2)cc1Nc1cn(C)c2ccn(C3CC3)c(=O)c12` [Example 108, 6-(Cyclopropanecarboxamido)-4-((5-cyclopropyl-1-methyl-4-oxo-4,5-dihydro-1H-pyrrolo[3,2-c]pyridin-3-yl)amino)-N-(methyl-d3)nicotinamide], with 523 nM; and `[2H]C([2H])([2H])NC(=O)c1cnc(NC(=O)C2CC2)cc1Nc1cn(C)c2ccn(CC=C)c(=O)c12` [Example 109, 4-((5-Allyl-1-methyl-4-oxo-4,5-dihydro-1H-pyrrolo[3,2-c]pyridin-3-yl)amino)-6-(cyclopropanecarboxamido)-N-(methyl-d3)nicotinamide], with 147 nM.
Then `[2H]C([2H])([2H])NC(=O)c1cnc(NC(=O)C2CC2)cc1Nc1cn(C)c2ccn(C3CCC3)c(=O)c12` [Example 111, 4-((5-Cyclobutyl-1-methyl-4-oxo-4,5-dihydro-1H-pyrrolo[3,2-c]pyridin-3-yl)amino)-6-(cyclopropanecarboxamido)-N-(methyl-d3)nicotinamide], with 154 nM.

For the origin of these results see patent US20250115597A1, “TYK2 INHIBITORS AND COMPOSITIONS AND METHODS THEREOF” (LYNK PHARMACEUTICALS CO. LTD., priority 2021, published 2025).
